The source of these data is patent publication US4916122A, “3'-Azido-2',3'-dideoxyuridine anti-retroviral composition” (University of Georgia Research Foundation, Inc., priority 1987, dated 1990).

One data set deals with Friend (EY-10). In words: Median effective antiviral concentration against Friend virus (Table 5). Particulars: unidentified retrovirus, in Mus musculus. In kind it is cell-based, murine retrovirus. An excerpt:
A comparison of the differences in median effective an tiviral concentrations between human, non-human primate, and murine retroviruses is shown in Table 5. […] A further comparison of the activity of several nucleoside analogues, including CS-87, against HIV-1 and SIV in human PBM cells is shown in FIG. 6. The effect of delayed treatment with AZT, CS-87 or CS-91 on the replication of HIV-1 and SIV in human PBM cells is shown in FIGS. 7a, b, and c.

A further data set has as its system HIV-1 (Strain RF-II). Description: Antiviral activity against HIV-1 in HeLa-T4 cells (Table 4). In kind it is cell-based. The procedure:
Evaluation in Hela-T4 cells infected with HIV-1 (Strain RF-II)
HeLa-T4 cells (described in Cell 47: 333, 1986) are maintained in Dulbecco's Modified Eagle medium containing 10% inactivated fetal calf serum, penicillin (100 U/ml) and streptomycin (100 μg/ml), and the antibiotic G418 (1 mg/ml). The cells are seeded onto a 96-well plate (2×10^4 cells/well per 0.1 ml), and two days later, the supernatant is removed and the virus added. After adsorption for 45 minutes, the inoculum is removed and the cells washed with phosphate-buffered saline (pH 7.2). The compounds at different concentration are then added in maintenance medium (containing 2% serum). […] The cells are fixed with a mixture of 5% glacial acetic acid/95% Ethanol for 15 minutes, and then stained with Giemsa (20% in PSB) for 4 hours. The plates are then washed and dried. The foci are then enumerated with a dissecting stereomicroscope.

A further data set relates to Coxsackie virus B4. Particulars: Colla et al.; cited from earlier work.
The test system of data set [1] is HIV-1.
Data set [2] relates to HIV-1. In words: microbe, parasite or virus in culture. Particulars: Human immunodeficiency virus 1, PBMC, read-out: PBM (EC50).
The subject of a further data set is measles. Particulars: Colla et al.; cited from earlier work.
The subject of another data set is polio virus-1. As to conditions: cited from earlier work.
The next data set concerns uninfected cells. Particulars: tested up to 200 μM.

Take `[N-]=[N+]=N[C@H]1C[C@H](n2ccc(=O)[nH]c2=O)O[C@@H]1CO` [CS-87, 3'-azido-2',3'-dideoxyuridine]: the EC50 – broadly, the concentration needed to bring the measured effect to its halfway point – was > 10000 nM with Friend (EY-10); 1240 nM with HIV-1 (Strain RF-II) (Human immunodeficiency virus 1, HeLaT4, HIV-1); 180 nM in the data set with HIV-1 [2]. For the same compound, the “activity compared to d2C in HeLa-T4 cells” value with HIV-1 (Strain RF-II) was “less active”. The “activity against Coxsackie virus B4” value with Coxsackie virus B4 was “inactive”. Further, in the data set with HIV-1 [1], the “activity compared to d2C in PBM cells” value was “less active”. In the data set with measles, the activity against measles result was “inactive”. The “activity against polio virus-1” value in the data set with polio virus-1 was “inactive”. The “toxicity to the uninfected cells” value in the data set on uninfected cells is “not toxic”.
